Legend:
[1] = biological target: T1, CD73 on U138 human neuroglioma cells (Homo sapiens, UniProt P21589); test: CD73 Cell-Based Assay; settings: U138 cells, AMP substrate, 2 hours at 37° C., inorganic phosphate by malachite green
T1 construct: U138 cells were obtained from ATCC and cultured in DMEM with 10% FBS; host or cells: U138 human neuroglioma cells
T1 sequence (P21589 27-549): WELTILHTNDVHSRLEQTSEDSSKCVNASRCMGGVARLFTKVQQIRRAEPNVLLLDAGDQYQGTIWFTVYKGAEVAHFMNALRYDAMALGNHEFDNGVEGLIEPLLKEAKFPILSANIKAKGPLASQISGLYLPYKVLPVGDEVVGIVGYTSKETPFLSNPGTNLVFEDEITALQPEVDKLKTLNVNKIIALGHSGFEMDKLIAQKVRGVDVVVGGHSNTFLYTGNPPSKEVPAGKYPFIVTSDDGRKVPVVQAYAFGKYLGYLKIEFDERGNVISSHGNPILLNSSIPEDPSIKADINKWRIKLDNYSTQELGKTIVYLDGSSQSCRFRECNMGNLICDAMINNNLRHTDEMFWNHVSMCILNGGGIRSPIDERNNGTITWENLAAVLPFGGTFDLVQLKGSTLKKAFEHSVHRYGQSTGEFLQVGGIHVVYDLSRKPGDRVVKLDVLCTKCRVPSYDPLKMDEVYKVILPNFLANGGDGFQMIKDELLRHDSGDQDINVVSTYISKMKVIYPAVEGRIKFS
How it was run: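 Whole U138 cells washed free of phosphate were incubated with 200 μM AMP (mixture concentration before equal-volume addition) plus compound in HEPES-buffered saline, pH 7.4, for 2 h at 37 °C, 5% CO2. Adenosine-forming activity read as inorganic phosphate released into supernatant by malachite green.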

Human CD73 = biological target: T2, Human CD73 (Homo sapiens, UniProt P21589); test: CD73 Enzyme Assay; format: biochemical; settings: 0.25 nM hCD73, 25 μM AMP, kinetic read at 360 nm; read-out: CD73 Enzyme Assay IC50
T2 construct: purchased R&D Systems; host or cells: CHO cells
T2 sequence (P21589 27-549): T1 sequence (P21589 27-549)

Row | Structure (SMILES) | IC50 [1] | IC50 (Human CD73)
1 | C[C@H](Nc1nc(C#N)nc2c1ccn2[C@@H]1O[C@H](COCP(=O)(O)O)[C@@H](O)[C@H]1O)c1ccc(C2CC2)cc1 [Compound 204, [(2R,3S,4R,5R)-5-[2-cyano-4-[[(1S)-1-(4-cyclopropylphenyl)-ethyl]amino]pyrrolo-[2,3-d]pyrimidin-7-yl]-3,4-dihydroxy-tetra-hydrofuran-2-yl]-methoxymethylphos-phonic acid] | < 10 nM | < 10 nM
2 | C[C@@H](Nc1nc(C#N)nc2c1ccn2[C@@H]1O[C@H](COCP(=O)(O)O)[C@@H](O)[C@H]1O)c1ccc(C2CC2)cc1 [Compound 205, [(2R,3S,4R,5R)-5-[2-cyano-4-[[(1R)-1-(4-cyclopropylphenyl)-ethyl]amino]pyrrolo-[2,3-d]pyrimidin-7-yl]-3,4-dihydroxy-tetra-hydrofuran-2-yl]-methoxymethylphos-phonic acid] | < 10 nM | < 10 nM
3 | O=P(O)(O)COC[C@H]1O[C@@H](n2ccc3c(Oc4ccccc4)nc(Cl)nc32)[C@H](O)[C@@H]1O [Compound 206, [(2R,3S,4R,5R)-5-(2-chloro-4-phenoxy-pyrrolo[2,3-d]-pyrimidin-7-yl)-3,4-dihydroxy-tetrahydro-furan-2-yl]methoxy-methylphosphonic acid] | > 1000 nM | 10 to 100 nM
4 | O=P(O)(O)COC[C@H]1O[C@@H](n2ccc3c(Sc4ccccc4)nc(Cl)nc32)[C@H](O)[C@@H]1O [Compound 207, [(2R,3S,4R,5R)-5-(2-chloro-4-phenyl-sulfanyl-pyrrolo[2,3-d]-pyrimidin-7-yl)-3,4-dihydroxy-tetrahydro-furan-2-yl]methoxy-methylphosphonic acid] | 100 to 1000 nM | 100 to 1000 nM
5 | N#Cc1cn([C@@H]2O[C@H](COCP(=O)(O)O)[C@@H](O)[C@H]2O)c2nc(Cl)nc(NC3CCCC3)c12 [Compound 209, [(2R,3S,4R,5R)-5-[2-chloro-5-cyano-4-(cyclopentylamino)-pyrrolo[2,3-d]-pyrimidin-7-yl]-3,4-dihydroxy-tetrahydro-furan-2-yl]methoxy-methylphosphonic acid] | 100 to 1000 nM | 100 to 1000 nM
6 | O=P(O)(O)COC[C@H]1O[C@@H](n2ccc3c(Nc4ccccc4)nc(Cl)nc32)[C@H](O)[C@@H]1O [Compound 211, [(2R,3S,4R,5R)-5-(4-anilino-2-chloro-pyrrolo[2,3-d]-pyrimidin-7-yl)-3,4-dihydroxy-tetrahydro-furan-2-yl]methoxy-methylphosphonic acid] | 100 to 1000 nM | 100 to 1000 nM
7 | O=P(O)(O)COC[C@H]1O[C@@H](n2ccc3c(-c4ccccc4)nc(Cl)nc32)[C@H](O)[C@@H]1O [Compound 212, [(2R,3S,4R,5R)-5-(2-chloro-4-phenyl-pyrrolo[2,3-d]-pyrimidin-7-yl)-3,4-dihydroxy-tetrahydro-furan-2-yl]methoxy-methylphosphonic acid] | 10 to 100 nM | 10 to 100 nM
8 | O=P(O)(O)COC[C@H]1O[C@@H](n2ccc3c(C4CCCC4)nc(Cl)nc32)[C@H](O)[C@@H]1O [Compound 213, [(2R,3S,4R,5R)-5-(2-chloro-4-cyclopentyl-pyrrolo[2,3-d]-pyrimidin-7-yl)-3,4-dihydroxy-tetrahydro-furan-2-yl]methoxy-methylphosphonic acid] | 10 to 100 nM | 10 to 100 nM
9 | O=P(O)(O)COC[C@H]1O[C@@H](n2ccc3c(N[C@@H](CO)c4ccccc4)nc(Cl)nc32)[C@H](O)[C@@H]1O [Compound 218, [(2R,3S,4R,5R)-5-[2-chloro-4-[[(1R)-2-hydroxy-1-phenyl-ethyl]amino]pyrrolo-[2,3-d]pyrimidin-7-yl]-3,4-dihydroxy-tetra-hydrofuran-2-yl]-methoxymethylphos-phonic acid] | 10 to 100 nM | 10 to 100 nM
10 | O=P(O)(O)COC[C@H]1O[C@@H](n2ccc3c(OC4CCCC4)nc(Cl)nc32)[C@H](O)[C@@H]1O [Compound 219, [(2R,3S,4R,5R)-5-[2-chloro-4-(cyclo-pentoxy)pyrrolo[2,3-d]-pyrimidin-7-yl]-3,4-dihydroxy-tetrahydro-furan-2-yl]methoxy-methylphosphonic acid] | 10 to 100 nM | 10 to 100 nM
11 | CC(C)C(=O)COP(=O)(O)COC[C@H]1O[C@@H](n2ccc3c(NC4CCCC4)nc(Cl)nc32)[C@H](O)[C@@H]1O [Compound 222, [(2R,3S,4R,5R)-5-[2-chloro-4-(cyclopentyl-amino)pyrrolo[2,3-d]-pyrimidin-7-yl]-3,4-dihydroxy-tetrahydro-furan-2-yl]methoxy-methyl-(3-methyl-2-oxo-butoxy)phosphinic acid] | 100 to 1000 nM | 100 to 1000 nM
12 | O=P(O)(O)CP(=O)(O)OC[C@H]1O[C@@H](n2ccc3c(NC4CCCC4)nc(Cl)nc32)[C@H](O)[C@@H]1O [Compound 229] | < 10 nM | < 10 nM
13 | O=P(O)(O)COC[C@H]1O[C@@H](n2ccc3c(NC4CCCC4)nc(I)nc32)[C@H](O)[C@@H]1O [Compound 230, [(2R,3S,4R,5R)-5-[4-(cyclopentylamino)-2-iodo-pyrrolo[2,3-d]-pyrimidin-7-yl]-3,4-dihydroxy-tetrahydro-furan-2-yl]methoxy-methylphosphonic acid] | < 10 nM | < 10 nM
14 | O=P(O)(O)COC[C@H]1O[C@@H](n2ccc3c(NC4CCCC4)nc(C(F)(F)F)nc32)[C@H](O)[C@@H]1O [Compound 231, [(2R,3S,4R,5R)-5-[4-(cyclopentylamino)-2-(trifluoromethyl)-pyrrolo[2,3-d]-pyrimidin-7-yl]-3,4-dihydroxy-tetrahydro-furan-2-yl]methoxy-methylphosphonic acid] | 10 to 100 nM | 10 to 100 nM
15 | O=P(O)(COC[C@H]1O[C@@H](n2ccc3c(NC4CCCC4)nc(Cl)nc32)[C@H](O)[C@@H]1O)OCC(F)(F)F [Compound 232, [(2R,3S,4R,5R)-5-[2-chloro-4-(cyclopentyl-amino)pyrrolo[2,3-d]-pyrimidin-7-yl]-3,4-dihydroxy-tetrahydro-furan-2-yl]methoxy-methyl-(2,2,2-trifluoro-ethoxy)phosphinic acid] | 10 to 100 nM | 10 to 100 nM
16 | O=P(O)(O)COC[C@H]1O[C@@H](n2ncc3c(NC4CCCC4)nc(Cl)nc32)[C@H](O)[C@@H]1O [Compound 240, ((((2R,3S,4R,5R)-5-(6-chloro-4-(cyclopentylamino)-1H-pyrazolo[3,4-d]pyrimidin-1-yl)-3,4-dihydroxytetrahydrofuran-2-yl)methoxy)methyl)phosphonic acid] | < 10 nM | < 10 nM
17 | O=P(O)(O)COC[C@H]1O[C@@H](n2ccc3c(NC4CCCC4)nc(C#CCO)nc32)[C@H](O)[C@@H]1O [Compound 243, [(2R,3S,4R,5R)-5-[4-(cyclopentylamino)-2-(3-hydroxyprop-1-ynyl)pyrrolo[2,3-d]-pyrimidin-7-yl]-3,4-dihydroxy-tetrahydro-furan-2-yl]methoxy-methylphosphonic acid] | < 10 nM | < 10 nM
18 | C#Cc1nc(NC2CCCC2)c2ccn([C@@H]3O[C@H](COCP(=O)(O)O)[C@@H](O)[C@H]3O)c2n1 [Compound 244, [(2R,3S,4R,5R)-5-[4-(cyclopentylamino)-2-ethynyl-pyrrolo[2,3-d]-pyrimidin-7-yl]-3,4-dihydroxy-tetrahydro-furan-2-yl]methoxy-methylphosphonic acid] | < 10 nM | < 10 nM
19 | COc1nc(NC2CCCC2)c2ccn([C@@H]3O[C@H](COCP(=O)(O)O)[C@@H](O)[C@H]3O)c2n1 [Compound 247, [(2R,3S,4R,5R)-5-[4-(cyclopentylamino)-2-methoxy-pyrrolo[2,3-d]pyrimidin-7-yl]-3,4-dihydroxy-tetrahydro-furan-2-yl]methoxy-methylphosphonic acid] | 10 to 100 nM | 10 to 100 nM
20 | O=P(O)(O)COC[C@H]1O[C@@H](n2ccc3c(NC4CCCC4)nc(Oc4cccnc4)nc32)[C@H](O)[C@@H]1O [Compound 248, [(2R,3S,4R,5R)-5-[4-(cyclopentylamino)-2-(3-pyridyloxy)pyrrolo-[2,3-d]pyrimidin-7-yl]-3,4-dihydroxy-tetra-hydrofuran-2-yl]meth-oxymethylphosphonic acid] | 100 to 1000 nM | 100 to 1000 nM
21 | O=P(O)(O)COC[C@H]1O[C@@H](n2ccc3c(NC4CCCC4)nc(O)nc32)[C@H](O)[C@@H]1O [Compound 250, [(2R,3S,4R,5R)-5-[4-(cyclopentylamino)-2-hydroxy-pyrrolo[2,3-d]pyrimidin-7-yl]-3,4-dihydroxy-tetrahydro-furan-2-yl]methoxy-methylphosphonic acid] | 10 to 100 nM | 10 to 100 nM
22 | COCC#Cc1nc(NC2CCCC2)c2ccn([C@@H]3O[C@H](COCP(=O)(O)O)[C@@H](O)[C@H]3O)c2n1 [Compound 252, [(2R,3S,4R,5R)-5-[4-(cyclopentylamino)-2-(3-methoxyprop-1-ynyl)pyrrolo[2,3-d]-pyrimidin-7-yl]-3,4-dihydroxy-tetrahydro-furan-2-yl]methoxy-methylphosphonic acid] | < 10 nM | < 10 nM

From patent US11591355B2 (Peloton Therapeutics, Inc., priority 2017, dated 2023)
